Measured values from patent US20150190369A1, “QUERCETIN-3-GLUCOSIDE AND USES THEREOF” (priority 2012, published 2015).

Legend:
[1] = dogs, meal supplement; cited from earlier work
PCSK9 mRNA = experiment: qRT-PCR for PCSK9 mRNA in MIN6 β-cells; assay type: cell-based, mouse; parameters: increase in PCSK9 mRNA: dose or concentration left out as unconfirmed; settings: MIN6, 24 h
Experimental: Mouse insulinoma MIN6 cells were cultured in a 5% CO2-95% air atmosphere at 37° C. in DMEM medium containing 10% heat-inactivated fetal bovine serum, 1 mM Na-pyruvate, 2 mM L-glutamine, 25 mM D-glucose, and 28 μM β-mercaptoethanol. Q3G at a specific final concentration was supplemented to the culture medium and incubation was conducted for a selected length of time. Media were collected, spun at 600 g to sediment suspended cells, supplemented with 0.5 volumes of 3×RIPA-PIC (1×: 50 mM Tris-HCl, pH 8, 150 mM NaCl, 1% NP-40, 0.5% Na-deoxycholate and 0.1% SDS and PIC). Cells were lysed in 1×RIPA-PIC for immuno-blotting, or in RNA extraction buffer for qRT-PCR.
For the mouse studies, the levels of specific mRNAs were quantified in a PCR-based fluorogenic assay using the Taqman technology (Holland et al., 1991). Briefly, total RNA was extracted using the RNeasy extraction kit and reverse-transcribed into cDNA using random hexameric primers and the Superscript II RNase H-Reverse Transcriptase. The cDNA was used as a template to produce PCR amplicons using FastStart TaqMan ProbeMaster-Rox master mix, primer pairs and the appropriate fluorescent probes) in the Stratagene Mx3005P thermocycler. Standard curves were established using varying amounts of pre-quantified amplicons of each transcript. The level of mRNA for the TATA-box binding protein (TBP) was used for normalization.
MIN6 β-cells were incubated for 24 h in the presence of different concentrations of Q3G. Total RNA was extracted and analyzed by qRT-PCR for the levels of mRNA for PCSK9, LDLR, ABCA1 and ABCG1.

LDLR = experiment: Immunofluorescence flow cytometry of cell surface LDLR on Huh7 cells; assay type: cell-based, human; settings: Huh7 pretreated 24 h with 5 μM Q3G versus untreated
Experimental: Cells were seeded at 4×10^4 cell/10-cm dish in 3 ml of completed medium and incubated overnight. LPDS medium containing or not 5 μM Q3G was substituted and incubation resumed for 24 h. Subsequent steps were conducted with ice-cold solutions and at 4° C. Cell monolayers were rinsed with PBS, overlaid with PBS containing rabbit anti-LDLR antibody for 1 h, then with PBS containing Alexa Fluor-488-conjugated goat anti-rabbit Ig antibody for another 1 h. After a PBS rinse, the cells were overlaid with Versene, suspended in DMEM and analyzed in Benson-Dickenson XL flow cytometer at 492 nm and 520 nm excitation and emission wavelengths, respectively. Cell autofluorescence and non-specific fluorescence were assessed using cells not treated with the secondary and the primary antibody, respectively.
To be functionally relevant, Q3G-induced LDLR should accumulate at the cell surface of the hepatocyte cells where it could mediate LDL uptake. To verify the surface localization of the receptor, untreated and pretreated intact Huh7 cells were stained at 4° C. for LDLR by indirect immunofluorescence, and analyzed by fluorescence flow cytometry.

SREBP-2 mRNA = experiment: Quantitative RT-PCR for proSREBP-2 mRNA in Huh7 cells; assay type: cell-based, human; settings: Huh7, 24 h, 5 μM Q3G
Experimental: FIGS. 9A and 9B are graphs illustrating the proSREBPs-2 mRNA and SREBP-2-related protein levels for cells exposed to Q3G. Cells were incubated for 24 h in medium 5 μM Q3G. FIG. 9A illustrates the results for quantitative RT-PCR for proSREBPs-2 mRNA levels. Values are the means of triplicate experiments±SEM. FIG. 9B illustrates the results for semi-quantitative immunoblotting for cellular SREBP-2-related protein. Mat/Prec values, the averages of two experiments, represent density ratios of the 65-kDa SREBP over the 158-kDa proSREBPs after normalization for β-actin.
At passage, Huh7 cells were routinely seeded at sub-confluence (˜10^6 cells/10-cm dish) in Dulbecco's modified Eagle's medium (DMEM) containing 10% fetal bovine serum (FBS) or LPDS (for experiments) and 50 μg/ml gentamycin. They were incubated overnight at 37° C., in a humidified 5% CO2-95% air atmosphere. Cells were treated or not with Q3G at defined concentrations and for defined lengths of time. Media were collected and centrifuged at 200 g for 5 min to sediment suspended cells; supernatants were collected and supplemented with 0.33 volumes of a 3×-concentrated PIC. […]
Standard curves were established using varying amounts of purified and quantified cDNA amplicons of each mRNA. […]

## O=c1c(O[C@@H]2O[C@H](CO)[C@@H](O)[C@H](O)[C@H]2O)c(-c2ccc(O)c(O)c2)oc2cc(O)cc(O)c12 [Q3G, quercetin-3-O-β-D-glucoside]
[1]
  quercetin bioavailability versus quercetin aglycone and rutin: significantly greater
PCSK9 mRNA; Q3G 8 mM and above
  effect on PCSK9 mRNA levels: increased
PCSK9 mRNA; Q3G up to 4 mM
  effect on PCSK9 mRNA levels: does not affect
PCSK9 mRNA; maximum Q3G concentration used
  increase in PCSK9 mRNA: 2.5 fold
LDLR
  increase of LDLR cell surface density: 1.7 fold
SREBP-2 mRNA
  effect on level of SREBP-2 mRNA: no effect
